According to patent US20050287192A1, “Wound bandage comprising a non-enzymatic antioxidant” (priority 2002, published 2005):
Entries after “also recorded” stand apart in the source; their conditions may differ.

How the values were obtained:
Type in all cases: cell-based, human
leukocytes [1] = test: ability of leukocytes to kill bacteria in presence of additives in solution (CFU count); details: additive 10 mM in solution; leukocytes 1×10^5 cells/ml and Staphylococcus aureus 1×10^6 cells/ml, 37° C., two hours; FIG. 6
Method: The ability of leukocytes to kill bacteria in the presence of glutathione (10 mM) or N-acetylcysteine (10 mM) in solution was studied in the following manner: Leukocytes (1×10^5 cells/ml) and Staphylococcus aureus (1×10^6 cells/ml) were incubated together at 37° C. for two hours. The leukocytes were killed and the remaining bacteria were allowed to grow on a blood agar plate for 24 hours, after which the number of bacterial colonies (CFU) was calculated. Control samples without leukocytes were done in parallel with all the tests. A small number of colonies means that the leukocytes have good ability to kill bacteria.

leukocytes [2] = test: stress activation of leukocytes in contact with cotton wool compresses, release of reactive oxygen by luminol-enhanced chemiluminescence; details: cotton wool compress with physiological saline solution with glutathione, final concentration 0.05 mM, vs untreated compress; FIG. 3
Method: First of all leukocytes were isolated from human veinous blood and the cells were then left in contact with cotton wool compresses and stress activation of the cells was measured as the release of reactive oxygen with luminol-enhanced chemiluminiscense.
From FIG. 1 it is apparent that the leukocytes are activated on contact with cotton wool compresses.
The cellulose is then reduced again with cyanoborohydride.

leukocytes [3] = test: lipid peroxidation of leukocyte cell membranes measured with fluorescent probe DPPP; details: contact between leukocytes and treated cotton wool compress, DPPP fluorescence; FIG. 5
Method: Lipid peroxidation of cell membranes during the contact between leukocytes and cotton wool compresses was measured with a fluorescent probe, diphenyl-1-pyrenylphosphine (DPPP), which reacts with membrane peroxides and forms a fluorescent oxide, see Okimoto, Watanabe, et al., 2000 FEBS Letter, vol 474, pages 137-140.

leukocytes [4] = test: ability of leukocytes to be activated by zymosan after contact with cotton wool compresses; details: after contact with cotton wool compress with additive; FIG. 4
Method: The ability of the leukocytes to react against a microbial agent after contact with the cotton wool compresses was then tested by addition of zymosan, a fungal spore used to test the ability of the leukocytes to kill microbes.

## CC(=O)N[C@@H](CS)C(=O)O [N-acetylcysteine]
Leukocytes [1]
  ability of leukocytes to kill bacteria (number of bacterial colonies, CFU): kill the bacteria completely

## N[C@@H](CCC(=O)N[C@@H](CS)C(=O)NCC(=O)O)C(=O)O [glutathione]
Leukocytes [2]
  activation of leukocytes (release of reactive oxygen): does not affect activation of the leukocytes; also recorded: somewhat increased quantity of reactive oxygen
Leukocytes [3]
  lipid peroxidation of the cell membrane: reduce the lipid peroxidation of the cell membrane
Leukocytes [4]
  ability of leukocytes to be activated by zymosan: retain the ability to be activated by zymosan
Leukocytes [1]
  ability of leukocytes to kill bacteria (number of bacterial colonies, CFU): kill the bacteria completely
